According to PubChem BioAssay AID493146 (Sanford-Burnham Center for Chemical Genomics, 2011):
pEC50: −log10 of the molar value. The source made the active and inactive calls. How the calls were made is not given here.

Biological target: intestinal alkaline phosphatase (Alpi), Mus musculus
Assay: activators of mouse IAP enzyme, SAR follow-up, biochemical, luminescence (AID 493146)
Conditions: purified mouse IAP, luminescent substrate, activation

SMILES | EC50 | pEC50
CCOC(=O)N1CCC(NC(=O)CSc2sc3c(O)cc(=O)[nH]c3c2C#N)CC1 | > 100 µM (inactive) | –
COc1ccc(Cl)cc1NC(=O)CSc1sc2c(O)cc(=O)[nH]c2c1C#N | > 100 µM (inactive) | –
Cc1csc(NC(=O)CSc2sc3c(O)cc(=O)[nH]c3c2C#N)n1 | > 100 µM (inactive) | –
N#Cc1c(SCC(=O)Nc2nc3ccccc3s2)sc2c(O)cc(=O)[nH]c12 | > 100 µM (inactive) | –
O=C(N/N=C/C1CC=CCC1)c1cc(O)c(O)c(O)c1 (stereo unspecified) | > 100 µM (inactive) | –
CCN(CC)C(=O)CSc1sc2c(O)cc(=O)[nH]c2c1C#N | > 100 µM (inactive) | –
COc1ccc(OC)c(NC(=O)CCNS(=O)(=O)c2ccc3[nH]c(=O)oc3c2)c1 | > 100 µM (inactive) | –
CCOC(=O)NC(=O)CSc1sc2c(O)cc(=O)[nH]c2c1C#N | > 100 µM (inactive) | –
S=C(NCCC(c1ccccc1)c1ccccc1)Nc1ccc(Cl)cc1Cl | – | 5.15
Cc1ccc(Cl)cc1NC(=O)CSc1sc2c(O)cc(=O)[nH]c2c1C#N | > 100 µM (inactive) | –
O=C(N/N=C/c1ccsc1)c1cc(O)c(O)c(O)c1 | > 100 µM (inactive) | –
O=C(NCCc1ccc(Cl)cc1)C1CCCN(S(=O)(=O)c2ccc3[nH]c(=O)oc3c2)C1 (stereo unspecified) | > 100 µM (inactive) | –
Cc1cc(=O)oc2cc(NC(=S)NCCC(c3ccccc3)c3ccccc3)ccc12 | > 100 µM (inactive) | –
Cc1ccc(NC(=O)CSc2sc3c(O)cc(=O)[nH]c3c2C#N)c(F)c1 | > 100 µM (inactive) | –
Cc1ccc(/C=N/NC(=O)c2cc(O)c(O)c(O)c2)cc1 | > 100 µM (inactive) | –
CN1CCC(=NNC(=O)c2cc(O)c(O)c(O)c2)CC1 | > 100 µM (inactive) | –

SMILES | EC50 | pEC50
CCOc1ccc2nc(NC(=O)CN(C)S(=O)(=O)c3ccc4[nH]c(=O)oc4c3)sc2c1 | > 100 µM (inactive) | –
COc1cc([N+](=O)[O-])ccc1NC(=S)NCCC(c1ccccc1)c1ccccc1 | > 100 µM (inactive) | –
CC(C)NC(=O)CSc1sc2c(O)cc(=O)[nH]c2c1C#N | > 100 µM (inactive) | –
COc1cc(Cl)c(C)cc1NC(=O)CSc1sc2c(O)cc(=O)[nH]c2c1C#N | > 100 µM (inactive) | –
N#Cc1c(SCC(=O)Nc2nccs2)sc2c(O)cc(=O)[nH]c12 | > 100 µM (inactive) | –
COC(=O)NNC(=O)c1cc(OC)c(OC)c(OC)c1 | > 100 µM (inactive) | –
COc1ccc(CNC(=O)CSc2sc3c(O)cc(=O)[nH]c3c2C#N)cc1OC | > 100 µM (inactive) | –
COc1cc(C(=O)NN=Cc2ccccn2)cc(OC)c1OC | > 100 µM (inactive) | –
CCCSc1nnc(NC(=O)CSc2sc3c(O)cc(=O)[nH]c3c2C#N)s1 | > 100 µM (inactive) | –
COc1ccc(NC(=O)CSc2sc3c(O)cc(=O)[nH]c3c2C#N)c(OC)c1 | > 100 µM (inactive) | –
O=C(NN=Cc1cccnc1)c1cc(O)c(O)c(O)c1 | > 100 µM (inactive) | –
COc1ccc(NC(=O)C(CC(C)C)NS(=O)(=O)c2ccc3[nH]c(=O)oc3c2)cc1 (stereo unspecified) | > 100 µM (inactive) | –
COc1cccc(CNC(=O)CCNS(=O)(=O)c2ccc3[nH]c(=O)oc3c2)c1 | > 100 µM (inactive) | –
COC(=O)c1ccc(C)c(NC(=O)CSc2sc3c(O)cc(=O)[nH]c3c2C#N)c1 | > 100 µM (inactive) | –
COc1cc(C(=O)NNc2nc3cc4c(cc3s2)OCO4)cc(OC)c1OC | > 100 µM (inactive) | –

Second part, the compound after the results:

EC50 | pEC50 | SMILES
> 100 µM (inactive) | – | CCN(C(=O)C(C)N1C(=O)/C(=C/c2ccco2)SC1=S)C1CCS(=O)(=O)C1 (stereo unspecified)
> 100 µM (inactive) | – | O=C(CN1C(=O)/C(=C/c2ccco2)SC1=S)Nc1ccc(C(=O)O)cc1
> 100 µM (inactive) | – | N#Cc1c(SCC(=O)Nc2cccc(F)c2)sc2c(O)cc(=O)[nH]c12
> 100 µM (inactive) | – | CCc1ccc(NC(=O)CN(C)S(=O)(=O)c2ccc3[nH]c(=O)oc3c2)cc1
> 100 µM (inactive) | – | O=C(CCN1C(=O)/C(=C\c2ccco2)SC1=S)Nc1ccc(C(=O)O)c(O)c1
> 100 µM (inactive) | – | O=C1/C(=C/c2ccco2)SC(=S)N1C1CCS(=O)(=O)C1 (stereo unspecified)
> 100 µM (inactive) | – | CN(C(=O)CN1C(=O)/C(=C\c2ccco2)SC1=S)C1CCS(=O)(=O)C1 (stereo unspecified)
> 100 µM (inactive) | – | CSc1cccc(NC(=O)CCNS(=O)(=O)c2ccc3[nH]c(=O)oc3c2)c1
> 100 µM (inactive) | – | O=C(N/N=C/c1ccccc1F)c1cc(O)c(O)c(O)c1
> 100 µM (inactive) | – | CC(C(=O)Nc1ccc(C(=O)O)cc1)N1C(=O)/C(=C\c2ccco2)SC1=S (stereo unspecified)
> 100 µM (inactive) | – | O=C(CCCN1C(=O)/C(=C\c2ccco2)SC1=S)Nc1ccc(O)cc1C(=O)O
> 100 µM (inactive) | – | O=C(CN1C(=O)/C(=C/c2ccco2)SC1=S)Nc1cccc(C(=O)O)c1
> 100 µM (inactive) | – | O=C(CCNS(=O)(=O)c1ccc2[nH]c(=O)oc2c1)Nc1ccccc1
> 100 µM (inactive) | – | CC(C(=O)NCCc1ccc(O)c(O)c1)N1C(=O)/C(=C\c2ccco2)SC1=S (stereo unspecified)
> 100 µM (inactive) | – | CC(C(=O)Nc1ccc(C(=O)O)c(O)c1)N1C(=O)/C(=C\c2ccco2)SC1=S (stereo unspecified)
> 100 µM (inactive) | – | Cc1ccc(/C=C2\SC(=S)N(C3CCS(=O)(=O)C3)C2=O)o1 (stereo unspecified)
> 100 µM (inactive) | – | CCN(C(=O)CN1C(=O)/C(=C\c2ccco2)SC1=S)C1CCS(=O)(=O)C1 (stereo unspecified)
> 100 µM (inactive) | – | O=C(CCCN1C(=O)/C(=C/c2ccco2)SC1=S)Nc1ccccc1

EC50 | pEC50 | SMILES
> 100 µM (inactive) | – | COc1ccccc1NC(=O)CCNS(=O)(=O)c1ccc2[nH]c(=O)oc2c1
> 100 µM (inactive) | – | CC(C(=O)Nc1ccccc1C(=O)O)N1C(=O)/C(=C\c2ccco2)SC1=S (stereo unspecified)
> 100 µM (inactive) | – | COc1ccccc1NC(=O)CSc1sc2c(O)cc(=O)[nH]c2c1C#N
> 100 µM (inactive) | – | Cc1ccc(NC(=O)CCNS(=O)(=O)c2ccc3[nH]c(=O)oc3c2)c(C)c1
> 100 µM (inactive) | – | O=C(CCN1C(=O)/C(=C/c2ccco2)SC1=S)Nc1ccc(C(=O)O)c(O)c1
> 100 µM (inactive) | – | COc1cccc(NC(=O)CN(C)S(=O)(=O)c2ccc3[nH]c(=O)oc3c2)c1
> 100 µM (inactive) | – | Cc1cc(NC(=O)CSc2sc3c(O)cc(=O)[nH]c3c2C#N)ccc1Br
> 100 µM (inactive) | – | COc1ccc(N2CCN(C(=O)CN3C(=O)/C(=C\c4ccco4)SC3=S)CC2)cc1
> 100 µM (inactive) | – | NS(=O)(=O)c1ccc(-c2ccc(/C=C3\SC(=S)N(C4CCS(=O)(=O)C4)C3=O)o2)cc1 (stereo unspecified)
> 100 µM (inactive) | – | O=C(CN1C(=O)/C(=C\c2ccco2)SC1=S)Nc1cccc(C(=O)O)c1
> 100 µM (inactive) | – | N#Cc1cccc(NC(=O)CSc2sc3c(O)cc(=O)[nH]c3c2C#N)c1
> 100 µM (inactive) | – | O=C(CN1C(=O)/C(=C/c2ccco2)SC1=S)Nc1ccc2nccnc2c1
> 100 µM (inactive) | – | O=C(CN1C(=O)/C(=C/c2ccco2)SC1=S)NCCc1ccc(O)cc1
> 100 µM (inactive) | – | CC(C(=O)Nc1cccc(C(=O)O)c1)N1C(=O)/C(=C\c2ccco2)SC1=S (stereo unspecified)
> 100 µM (inactive) | – | CC(C(=O)N(C)C1CCS(=O)(=O)C1)N1C(=O)/C(=C/c2ccco2)SC1=S (stereo unspecified)
> 100 µM (inactive) | – | CC(C)c1ccc(NC(=O)CCNS(=O)(=O)c2ccc3[nH]c(=O)oc3c2)cc1
> 100 µM (inactive) | – | Cc1ccc(NC(=O)CCNS(=O)(=O)c2ccc3[nH]c(=O)oc3c2)cc1N(C)C
